Experimental data from article PMC11594329, “Development of LAT1-Selective Nuclear Medicine Therapeutics Using Astatine-211” (International Journal of Molecular Sciences, 2024).

Legend:
[1] = system: PANC-1 tumor model; assay: Tissue distribution in nude mice (PANC-1 tumor model); format: in vivo, BALB/c nu/nu mice
In short: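 Male 5-week-old BALB/c nu/nu mice bearing subcutaneous PANC-1 xenografts (1 × 10^7 cells/mouse with Matrigel), used once tumors exceeded 50 mm^3. Single doses of ^211At-labelled AAMT derivatives ranged from 135.08 ± 2.35 kBq to 0.927 ± 0.020 MBq per mouse, n = 3–6.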

[2] = Tissue distribution in ICR mice (normal animals); format: in vivo
Excerpt: ICR mice (male, 5 weeks old) were purchased from Japan SLC (Shizuoka, Japan) and acclimated for one week prior to use. The doses in the distribution experiments were as follows: ^211At-AAMT-O-Me-L (0.407 ± 0.005 MBq/mouse, 31.64 ± 0.76 g, n = 6), ^211At-AAMT-O-Me-D (0.351 ± 0.004 MBq/mouse, 31.44 ± 0.94 g, n = 6), ^211At-AAMT-O-Et-L (0.685 ± 0.010 MBq/mouse, 24.14 ± 3.31 g, n = 6), ^211At-AAMT-O-Pr-L (1.09 ± 0.06 MBq/mouse, 26.33 ± 0.39 g, n = 6)

[3] = nude mice (PANC-1 tumor model), 1 h after injection
[4] = nude mice (PANC-1 tumor model), 3 h after injection
[5] = nude mice (PANC-1 tumor model), 24 h after injection
[6] = nude mice (PANC-1 tumor model), after 24 h

With `COc1ccc(C[C@](C)(N)C(=O)O)cc1[211At]` [^211At-AAMT-O-Me-L, (S)-2-amino-3-(3-(astato-^211At)-4-methoxyphenyl)-2-methylpropanic acid] the “Tissue distribution, Bladder” value [1, 3] was 0.06 ± 0.00 %ID/g, the “Tissue distribution, Blood” value [1, 3] was 7.85 ± 1.17 %ID/g and the “Tissue distribution, Bone” value [1, 3] was 0.68 ± 1.27 %ID/g. For the same compound, the “Tissue distribution, Brain” value [1, 3] was 0.46 ± 0.00 %ID/g, the “Tissue distribution, Cecum” value [1, 3] was 0.46 ± 0.05 %ID/g and the “Tissue distribution, Colon” value [1, 3] was 1.14 ± 0.27 %ID/g. For the same compound, the “Tissue distribution, Heart” value [1, 3] was 0.86 ± 0.04 %ID/g, the “Tissue distribution, Kidney” value [1, 3] was 3.56 ± 0.09 %ID/g and the “Tissue distribution, Liver” value [1, 3] was 4.92 ± 0.24 %ID/g. For the same compound, the “Tissue distribution, Lung” value [1, 3] was 5.16 ± 0.11 %ID/g, the “Tissue distribution, Pancreas” value [1, 3] was 0.58 ± 0.01 %ID/g and the “Tissue distribution, Salivary glands” value [1, 3] was 0.58 ± 0.05 %ID/g. The “Tissue distribution, Small intestine” value [1, 3] was 3.40 ± 0.36 %ID/g, the “Tissue distribution, Spleen” value [1, 3] was 4.34 ± 0.79 %ID/g and the “Tissue distribution, Stomach” value [1, 3] was 1.32 ± 0.06 %ID/g. For the same compound, the “Tissue distribution, Testis” value [1, 3] was 0.55 ± 0.02 %ID/g, the “Tissue distribution, Thyroid” value [1, 3] was 0.20 ± 0.02 %ID/g and the “Tissue distribution, Tumor” value [1, 3] was 7.83 ± 0.30 %ID/g. For the same compound, the “Tissue distribution, Bladder” value [1, 4] was 0.09 ± 0.01 %ID/g, the “Tissue distribution, Blood” value [1, 4] was 10.38 ± 2.28 %ID/g and the “Tissue distribution, Bone” value [1, 4] was 0.51 ± 1.35 %ID/g. The “Tissue distribution, Brain” value [1, 4] was 0.29 ± 0.01 %ID/g, the “Tissue distribution, Cecum” value [1, 4] was 0.43 ± 0.16 %ID/g and the “Tissue distribution, Colon” value [1, 4] was 0.68 ± 0.23 %ID/g. For the same compound, the “Tissue distribution, Heart” value [1, 4] was 0.76 ± 0.07 %ID/g, the “Tissue distribution, Kidney” value [1, 4] was 2.29 ± 0.07 %ID/g and the “Tissue distribution, Liver” value [1, 4] was 4.62 ± 0.20 %ID/g. For the same compound, the “Tissue distribution, Lung” value [1, 4] was 5.10 ± 0.42 %ID/g, the “Tissue distribution, Pancreas” value [1, 4] was 0.36 ± 0.10 %ID/g and the “Tissue distribution, Salivary glands” value [1, 4] was 0.78 ± 0.18 %ID/g. For the same compound, the “Tissue distribution, Small intestine” value [1, 4] was 2.50 ± 0.42 %ID/g, the “Tissue distribution, Spleen” value [1, 4] was 3.97 ± 0.59 %ID/g and the “Tissue distribution, Stomach” value [1, 4] was 1.31 ± 0.32 %ID/g. The “Tissue distribution, Testis” value [1, 4] was 0.55 ± 0.11 %ID/g, the “Tissue distribution, Thyroid” value [1, 4] was 0.23 ± 0.04 %ID/g and the “Tissue distribution, Tumor” value [1, 4] was 10.29 ± 0.88 %ID/g. For the same compound, the “Tissue distribution, Bladder” value [1, 5] was 0.55 ± 0.13 %ID/g, the “Tissue distribution, Blood” value [1, 5] was 0.88 ± 0.23 %ID/g and the “Tissue distribution, Bone” value [1, 5] was 0.75 ± 0.18 %ID/g. The “Tissue distribution, Brain” value [1, 5] was 0.13 ± 0.04 %ID/g, the “Tissue distribution, Cecum” value [1, 5] was 2.09 ± 0.41 %ID/g and the “Tissue distribution, Colon” value [1, 5] was 1.69 ± 0.15 %ID/g. The “Tissue distribution, Heart” value [1, 5] was 1.29 ± 0.42 %ID/g, the “Tissue distribution, Kidney” value [1, 5] was 1.67 ± 0.49 %ID/g and the “Tissue distribution, Liver” value [1, 5] was 0.92 ± 0.15 %ID/g. The “Tissue distribution, Lung” value [1, 5] was 4.43 ± 1.76 %ID/g, the “Tissue distribution, Pancreas” value [1, 5] was 0.59 ± 0.17 %ID/g and the “Tissue distribution, Salivary glands” value [1, 5] was 13.65 ± 5.31 %ID/g. For the same compound, the “Tissue distribution, Small intestine” value [1, 5] was 1.49 ± 0.29 %ID/g, the “Tissue distribution, Spleen” value [1, 5] was 3.12 ± 2.06 %ID/g and the “Tissue distribution, Stomach” value [1, 5] was 8.89 ± 2.65 %ID/g. The “Tissue distribution, Testis” value [1, 5] was 1.18 ± 0.25 %ID/g, the “Tissue distribution, Thyroid” value [1, 5] was 9.37 ± 3.33 %ID/g and the “Tissue distribution, Tumor” value [1, 5] was 1.86 ± 0.39 %ID/g. For the same compound, the “Accumulation remaining in tumors relative to ^211At-AAMT-OH-L” value [1, 6] was 2.6 times, the “Blood intensity relative to ^211At-AAMT-OH-L” value [1, 6] was 22 times and the “Increase of blood intensity in tumor-bearing mice compared with normal animals” value ([1]; tumor-bearing mice versus ICR mice) was 5 fold. For the same compound, the “Tissue distribution, Bladder” value ([2]; 1 h after injection) was 7.10 ± 1.15 %ID/g, the “Tissue distribution, Blood” value ([2]; 1 h after injection) was 1.57 ± 0.10 %ID/g and the “Tissue distribution, Bone” value ([2]; 1 h after injection) was 1.33 ± 0.16 %ID/g. For the same compound, the “Tissue distribution, Brain” value ([2]; 1 h after injection) was 0.32 ± 0.02 %ID/g, the “Tissue distribution, Cecum” value ([2]; 1 h after injection) was 0.85 ± 0.04 %ID/g and the “Tissue distribution, Colon” value ([2]; 1 h after injection) was 0.93 ± 0.13 %ID/g. For the same compound, the “Tissue distribution, Heart” value ([2]; 1 h after injection) was 2.01 ± 0.15 %ID/g, the “Tissue distribution, Kidney” value ([2]; 1 h after injection) was 2.47 ± 0.24 %ID/g and the “Tissue distribution, Liver” value ([2]; 1 h after injection) was 1.11 ± 0.10 %ID/g. For the same compound, the “Tissue distribution, Lung” value ([2]; 1 h after injection) was 6.42 ± 1.52 %ID/g, the “Tissue distribution, Pancreas” value ([2]; 1 h after injection) was 1.52 ± 0.17 %ID/g and the “Tissue distribution, Salivary glands” value ([2]; 1 h after injection) was 7.16 ± 1.54 %ID/g. The “Tissue distribution, Small intestine” value ([2]; 1 h after injection) was 1.82 ± 0.08 %ID/g, the “Tissue distribution, Spleen” value ([2]; 1 h after injection) was 5.01 ± 1.42 %ID/g and the “Tissue distribution, Stomach” value ([2]; 1 h after injection) was 13.65 ± 2.40 %ID/g. The “Tissue distribution, Testis” value ([2]; 1 h after injection) was 2.31 ± 0.04 %ID/g, the “Tissue distribution, Thymus” value ([2]; 1 h after injection) was 2.03 ± 0.50 %ID/g and the “Tissue distribution, Thyroid” value ([2]; 1 h after injection) was 13.12 ± 1.72 %ID/g. For the same compound, the “Tissue distribution, Bladder” value ([2]; 3 h after injection) was 0.10 ± 0.01 %ID/g, the “Tissue distribution, Blood” value ([2]; 3 h after injection) was 1.17 ± 0.24 %ID/g and the “Tissue distribution, Bone” value ([2]; 3 h after injection) was 0.53 ± 1.31 %ID/g. For the same compound, the “Tissue distribution, Brain” value ([2]; 3 h after injection) was 0.10 ± 0.02 %ID/g, the “Tissue distribution, Cecum” value ([2]; 3 h after injection) was 0.95 ± 0.11 %ID/g and the “Tissue distribution, Colon” value ([2]; 3 h after injection) was 0.80 ± 0.12 %ID/g. The “Tissue distribution, Heart” value ([2]; 3 h after injection) was 0.34 ± 0.02 %ID/g, the “Tissue distribution, Kidney” value ([2]; 3 h after injection) was 1.11 ± 0.15 %ID/g and the “Tissue distribution, Liver” value ([2]; 3 h after injection) was 2.57 ± 0.17 %ID/g. The “Tissue distribution, Lung” value ([2]; 3 h after injection) was 1.34 ± 0.32 %ID/g, the “Tissue distribution, Pancreas” value ([2]; 3 h after injection) was 0.19 ± 0.04 %ID/g and the “Tissue distribution, Salivary glands” value ([2]; 3 h after injection) was 1.77 ± 0.19 %ID/g. For the same compound, the “Tissue distribution, Small intestine” value ([2]; 3 h after injection) was 3.91 ± 0.20 %ID/g, the “Tissue distribution, Spleen” value ([2]; 3 h after injection) was 0.80 ± 0.19 %ID/g and the “Tissue distribution, Stomach” value ([2]; 3 h after injection) was 16.96 ± 1.89 %ID/g. The “Tissue distribution, Testis” value ([2]; 3 h after injection) was 0.52 ± 0.06 %ID/g, the “Tissue distribution, Thymus” value ([2]; 3 h after injection) was 0.14 ± 0.03 %ID/g and the “Tissue distribution, Thyroid” value ([2]; 3 h after injection, listed as L-Isomer) was 0.65 ± 0.16 %ID/g.
